Experiments:
Type in all cases: cell membranes
[1] = target: T1, GABA-A receptor; alpha-1/beta-3/gamma-2 (Homo sapiens) (UniProt P14867+P18507+P28472); test: Effect on [3H]muscimol binding to full length human N-terminal flag-tagged alpha1-beta3-C-terminal 1D4-tagged gamma2 GABAA receptor extracted from Tetracycline-resistant HEK293 cell membrane assessed as fold change in [3H]muscimol binding at 300 uM incubated for 30 mins; conditions: filed as modulator
[2] = target: T1, GABA-A receptor; alpha-1/beta-3/gamma-2 (Homo sapiens); test: (§1) Inhibition of R-mTFD-MPAB-induced [3H]muscimol binding to full length human N-terminal flag-tagged alpha1-beta3-C-terminal 1D4-tagged gamma2 GABAA receptor extracted from Tetracycline-resistant HEK293 cell membrane assessed as fold change at 300 uM incubated for 30 mins; conditions: filed as modulator
[3] = target: T2, GABA-A receptor; alpha-1/beta-3/gamma-2 (Homo sapiens, UniProt P14867+P18507+P28472); test: Inhibition of R-mTFD-MPAB-induced [3H]muscimol binding to full length human N-terminal flag-tagged alpha1-beta3-C-terminal 1D4-tagged gamma2 GABAA receptor extracted from Tetracycline-resistant HEK293 cell membrane incubated for 30 mins
T2 sequence (P14867 whole entry): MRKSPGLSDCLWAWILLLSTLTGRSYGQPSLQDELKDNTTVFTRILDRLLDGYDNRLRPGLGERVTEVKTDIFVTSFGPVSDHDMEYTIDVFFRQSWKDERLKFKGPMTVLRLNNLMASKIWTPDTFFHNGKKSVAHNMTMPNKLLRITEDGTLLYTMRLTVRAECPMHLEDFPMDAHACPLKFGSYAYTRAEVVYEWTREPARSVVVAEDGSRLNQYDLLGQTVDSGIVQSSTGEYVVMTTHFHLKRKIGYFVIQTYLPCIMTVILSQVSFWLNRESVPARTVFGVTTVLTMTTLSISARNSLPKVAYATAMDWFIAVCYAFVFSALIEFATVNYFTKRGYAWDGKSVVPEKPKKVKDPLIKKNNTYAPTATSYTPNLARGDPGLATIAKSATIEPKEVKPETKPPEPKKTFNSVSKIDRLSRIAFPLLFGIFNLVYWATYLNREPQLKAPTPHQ
T2 sequence (P18507 whole entry): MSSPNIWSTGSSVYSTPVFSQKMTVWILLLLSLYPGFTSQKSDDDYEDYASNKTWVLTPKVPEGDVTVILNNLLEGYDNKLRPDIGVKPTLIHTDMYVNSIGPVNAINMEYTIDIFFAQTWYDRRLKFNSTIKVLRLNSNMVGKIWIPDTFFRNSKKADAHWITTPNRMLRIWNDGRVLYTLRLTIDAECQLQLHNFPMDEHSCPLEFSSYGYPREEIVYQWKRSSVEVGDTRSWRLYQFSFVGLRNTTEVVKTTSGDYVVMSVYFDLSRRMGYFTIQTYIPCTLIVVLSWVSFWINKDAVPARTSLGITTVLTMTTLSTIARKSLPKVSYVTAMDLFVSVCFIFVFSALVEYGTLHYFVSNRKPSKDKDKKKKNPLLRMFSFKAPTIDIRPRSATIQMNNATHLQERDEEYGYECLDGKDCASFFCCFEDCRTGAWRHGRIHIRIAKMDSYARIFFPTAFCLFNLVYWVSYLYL
T2 sequence (P28472 whole entry): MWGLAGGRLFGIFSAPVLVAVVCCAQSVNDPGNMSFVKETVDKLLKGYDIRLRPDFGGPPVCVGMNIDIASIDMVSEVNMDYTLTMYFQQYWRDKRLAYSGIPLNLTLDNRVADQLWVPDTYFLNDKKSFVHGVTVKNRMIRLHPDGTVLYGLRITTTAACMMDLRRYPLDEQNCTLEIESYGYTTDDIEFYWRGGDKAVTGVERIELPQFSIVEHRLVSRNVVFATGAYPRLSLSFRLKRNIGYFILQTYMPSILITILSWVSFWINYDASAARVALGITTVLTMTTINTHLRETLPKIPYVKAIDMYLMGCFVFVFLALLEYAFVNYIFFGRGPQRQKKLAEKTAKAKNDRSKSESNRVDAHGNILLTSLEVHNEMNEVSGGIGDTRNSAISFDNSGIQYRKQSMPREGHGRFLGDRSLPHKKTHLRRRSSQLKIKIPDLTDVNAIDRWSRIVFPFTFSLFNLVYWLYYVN

[4] = target: T1, GABA-A receptor; alpha-1/beta-3/gamma-2 (Homo sapiens); test: as §1, with “[3H]flunitrazepam” for “R-mTFD-MPAB-induced [3H]muscimol”, “reduction in [3H]flunitrazepam binding” for “fold change”, “mins relative to control” for “mins”
[5] = target: T2, GABA-A receptor; alpha-1/beta-3/gamma-2; test: Mixed-type inhibition of R-mTFD-MPAB-induced [3H]muscimol binding to full length human N-terminal flag-tagged alpha1-beta3-C-terminal 1D4-tagged gamma2 GABAA receptor extracted from Tetracycline-resistant HEK293 cell membrane incubated for 30 mins
[6] = target: T2, GABA-A receptor; alpha-1/beta-3/gamma-2; test: Mixed effect on [3H]muscimol binding to full length human N-terminal flag-tagged alpha1-beta3-C-terminal 1D4-tagged gamma2 GABAA receptor extracted from Tetracycline-resistant HEK293 cell membrane assessed as [3H]muscimol binding incubated for 30 mins
[7] = target: T1, GABA-A receptor; alpha-1/beta-3/gamma-2 (Homo sapiens); test: Positive allosteric modulation on R-mTFD-MPAB-induced [3H]muscimol binding to full length human N-terminal flag-tagged alpha1-beta3-C-terminal 1D4-tagged gamma2 GABAA receptor extracted from Tetracycline-resistant HEK293 cell membrane at 300 uM incubated for 30 mins relative to control
[8] = target: T1, GABA-A receptor; alpha-1/beta-3/gamma-2 (Homo sapiens); test: Effect on [3H]muscimol binding to full length human N-terminal flag-tagged alpha1-beta3-C-terminal 1D4-tagged gamma2 GABAA receptor extracted from Tetracycline-resistant HEK293 cell membrane assessed as [3H]muscimol binding at 300 uM incubated for 30 mins relative to control
[9] = target: T2, GABA-A receptor; alpha-1/beta-3/gamma-2; test: Positive allosteric modulation on [3H]muscimol binding to full length human N-terminal flag-tagged alpha1-beta3-C-terminal 1D4-tagged gamma2 GABAA receptor extracted from Tetracycline-resistant HEK293 cell membrane assessed as [3H]muscimol binding incubated for 30 mins
[10] = target: T1, GABA-A receptor; alpha-1/beta-3/gamma-2 (Homo sapiens); test: Inhibition of R-mTFD-MPAB-induced [3H]muscimol binding to full length human N-terminal flag-tagged alpha1-beta3-C-terminal 1D4-tagged gamma2 GABAA receptor extracted from Tetracycline-resistant HEK293 cell membrane at 300 uM incubated for 30 mins relative to control
[11] = target: T1, GABA-A receptor; alpha-1/beta-3/gamma-2 (Homo sapiens); test: Modulation of [3H]flunitrazepam binding to full length human N-terminal flag-tagged alpha1-beta3-C-terminal 1D4-tagged gamma2 GABAA receptor extracted from Tetracycline-resistant HEK293 cell membrane assessed as fold change in [3H]flunitrazepam binding at 300 uM incubated for 30 mins; conditions: filed as modulator

Row | SMILES | fold change (FC) [1] | fold change (FC) [2] | IC50 [3] [µM] | EC50 [9] [µM] | other results
1 | O=C1NC(=O)C2(CCc3ccccc32)C(=O)N1 | -0.02 | 0.53 | 18 |  | inhibition [4]: 12%
2 | Cc1ccc2c(c1)C1(CC2)C(=O)NC(=O)N(C)C1=O (stereo in doubt; 4h-2) |  |  |  |  | IC50 [5]: 38 µM; EC50 [6]: 32 µM
3 | O=C1NC(=O)C2(CC(O)c3ccccc32)C(=O)N1 (stereo in doubt; 1t-2) |  |  | 113 |  | 
4 | CC(C)c1ccc2c(c1)C1(CC2)C(=O)NC(=O)NC1=O | 0.26 | 0.9 |  | 22 | Activity [7]: 20%; Activity [8]: < 10%; inhibition [10]: > 40%
5 | CC(C)c1ccc2c(c1)C1(CC2)C(=O)NC(=O)N(C)C1=O (stereo in doubt; 5h-2) |  |  |  | 38 | 
6 | CC(C)c1ccc2c(c1)C1(CC2)C(=O)NC(=O)N(C)C1=O (stereo in doubt; 5h-1) [listing 1 of 2 here] |  |  |  | 32 | 
7 | CN=C1NC(=O)C2(CCc3ccccc32)C(=O)N1 (stereo not drawn) | -0.09 | 0.35 | 99 |  | 
8 | CC(C)c1ccc2c(c1)C1(CC2)C(=O)NC(=O)N(C)C1=O (stereo in doubt; 5h-1) [listing 2 of 2 here] | 0.8 | 0.73 |  |  | fold change (FC) [11]: 0.84; Activity ([7]; filed as positive allosteric modulator): 80%; inhibition [4]: 12%

Source: ChEMBL document CHEMBL6134857, “Novel Spiro-Barbiturates Can Reverse the Action of General Anesthetics on the GABAAR” (J Med Chem, 2025)
